{"source": "ChEMBL document CHEMBL1157997", "about": "“A new biologically active acylated triterpene saponin from Silene fortunei” (J Nat Prod, 1999)", "key": {"[1]": {"assay": "Enhancement of human neutrophil granulocytes phagocytosis at 10 to 100 ug/mL by flow cytometric analysis", "format": "functional"}, "[2]": {"assay": "Cytotoxicity against human neutrophil granulocytes upto 100 ug/mL"}}}
{"smiles": "CC(=O)O[C@@H]1[C@H](O[C@@H]2O[C@H](CO)[C@@H](O)[C@H](O)[C@H]2O)[C@@H](O[C@@H]2O[C@@H](C)[C@H](O[C@@H]3OC[C@@H](O)[C@H](O)[C@H]3O[C@@H]3OC[C@H](O)[C@H](O)[C@H]3O[C@@H]3OC[C@H](O)[C@H](O)[C@H]3O)[C@@H](O)[C@H]2O)[C@H](OC(=O)[C@]23CCC(C)(C)C[C@H]2C2=CC[C@@H]4[C@@]5(C)CC[C@H](O[C@@H]6O[C@H](C(=O)O)[C@@H](O)[C@H](O)[C@H]6O[C@@H]6O[C@H](CO)[C@H](O)[C@H](O)[C@H]6O)[C@@](C)(C=O)C5=CC[C@@]4(C)[C@]2(C)C[C@H]3O)O[C@@H]1C", "values": [{"measurement": "Activity", "setting": "[1]", "value": 24, "unit": "%"}, {"measurement": "Activity", "setting": "[2]", "value": "Non-toxic"}]}
